The source of these data is ChEMBL document CHEMBL2176875, “Ago-allosteric modulators of human glucagon-like peptide 2 receptor” (Bioorg Med Chem Lett, 2012).

Activity calls are given as the source filed them. No cut-off for these calls is given here.

One assay addresses T1, Glucagon-like peptide 2 receptor (Homo sapiens) (UniProt O95838).
T1 sequence (whole entry): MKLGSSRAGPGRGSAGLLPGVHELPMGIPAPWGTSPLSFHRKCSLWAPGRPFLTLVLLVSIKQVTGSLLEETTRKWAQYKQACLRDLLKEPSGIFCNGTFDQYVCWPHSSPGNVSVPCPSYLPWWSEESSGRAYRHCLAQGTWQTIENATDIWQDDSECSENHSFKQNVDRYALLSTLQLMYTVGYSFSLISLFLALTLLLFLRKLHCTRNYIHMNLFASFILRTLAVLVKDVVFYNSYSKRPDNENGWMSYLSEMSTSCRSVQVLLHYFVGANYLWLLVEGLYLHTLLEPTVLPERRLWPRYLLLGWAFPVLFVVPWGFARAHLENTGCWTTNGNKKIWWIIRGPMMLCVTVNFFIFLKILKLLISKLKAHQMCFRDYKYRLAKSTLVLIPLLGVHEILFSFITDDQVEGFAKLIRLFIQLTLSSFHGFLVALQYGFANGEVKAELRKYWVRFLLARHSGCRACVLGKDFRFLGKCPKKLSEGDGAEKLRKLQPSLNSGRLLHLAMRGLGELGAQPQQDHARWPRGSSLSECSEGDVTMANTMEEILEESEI
In words: Positive ago-allosteric modulation of GLP2R overexpressed in human SE302 cells assessed as increase in GLP2 (11 to 33)-induced placental alkaline phosphatase activation at 10 uM measured on day 3 by Alamar Blue assay relative to GLP2. It counts as cell-based.
With `CC(C)(C)c1cc(/C(CSc2ccccc2)=N/O)cc(C(C)(C)C)c1`, the outcome was Active.

A further assay deals with T1, Glucagon-like peptide 2 receptor (Homo sapiens). The assay is described as follows: Positive ago-allosteric modulation of GLP2R overexpressed in human SE302 cells assessed as GLP2 (3 to 33)-induced placental alkaline phosphatase activation at 10 uM measured on day 3 by Alamar Blue assay relative to GLP2. It counts as cell-based.
On to `CC(C)(C)c1cc(/C(CSc2ccccc2)=N/O)cc(C(C)(C)C)c1`, for which the outcome was Active.

Another assay has the same target. The assay is described as follows: Positive ago-allosteric modulation of GLP2R overexpressed in human SE302 cells assessed as placental alkaline phosphatase activation measured on day 3 by Alamar Blue assay relative to GLP2. The format is cell-based.
As for “H-DGSFSDEMNTILDNLAARDFINWLIQTKITD-OH [listing 1 of 2 here]”, the %max came out at 59%.

The target is the same in a further assay. In words: Positive ago-allosteric modulation of GLP2R overexpressed in human SE302 cells assessed as placental alkaline phosphatase activation at 6.3 uM measured on day 3 by Alamar Blue assay relative to 100 pM GLP2. It counts as cell-based.
As for `COc1c(Br)cc(/C(CSc2ccccc2C(F)(F)F)=N/O)cc1C(C)(C)C`, the %max turned out to be 97%. Turning to `O/N=C(\CSc1ccccc1C(F)(F)F)c1cc(C(F)(F)F)nn1C1CCCC1`, the %max stood at 83%.

For another assay the target is unchanged. The assay is described as follows: Positive ago-allosteric modulation of GLP2R overexpressed in human SE302 cells assessed as placental alkaline phosphatase activation at 6.3 uM measured on day 3 by Alamar Blue assay relative to 10 pM GLP2. It counts as cell-based.
Regarding `COc1c(Br)cc(/C(CSc2ccccc2C(F)(F)F)=N/O)cc1C(C)(C)C`, the %max worked out at 714%. Still for that read-out and setting: the same measure for `O/N=C(\CSc1ccccc1C(F)(F)F)c1cc(C(F)(F)F)nn1C1CCCC1`: 610%.

For another assay the target is unchanged. In words: Positive ago-allosteric modulation of GLP2R overexpressed in human SE302 cells assessed as placental alkaline phosphatase activation at 12.5 uM measured on day 3 by Alamar Blue assay relative to 100 pM GLP2. It counts as cell-based.
As for `COc1c(Br)cc(/C(CSc2ccccc2)=N/O)cc1C(C)(C)C`, the %max amounted to 43%.

As to `CCC(C)n1nc(C(F)(F)F)cc1/C(CSc1ccccc1)=N/O` (stereo not given), the %max turned out to be 110%. The same measure, in the same setting: the same measure for `O/N=C(\CSc1ccccc1-c1ccccc1)c1cc(Cl)sc1Cl`: 84%; for `COc1c(C(=O)OC(C)(C)C)cc(/C(CSc2ccccc2)=N/O)cc1C(C)(C)C`: 12%; for `O/N=C(\CSc1ccccc1C(F)(F)F)c1cc(Cl)sc1Cl`: 58%. Still for that read-out and setting: for `CC(C)(C)c1ccccc1SC/C(=N\O)c1cc(Cl)sc1Cl` the value was 40%; for `O/N=C(\CSc1ccccc1)c1cc(C(F)(F)F)nn1Cc1ccccc1`, 59%. On the same count and under the same terms, for `COc1c(N(C)C)cc(/C(CSc2ccccc2)=N/O)cc1C(C)(C)C` the value was 43%; for `O/N=C(\CSc1ccncc1-c1ccccc1)c1cc(Cl)sc1Cl`, 102%; for `Cc1ccc(C)c(SC/C(=N\O)c2cc(Cl)sc2Cl)c1`, 40%. As to `Cc1ccc(SC/C(=N\O)c2cc(Cl)sc2Cl)c(C)c1`, the %max was found to be 58%. Consider `CCC(CC)n1nc(C(F)(F)F)cc1/C(CSc1ccccc1)=N/O`, for which the %max was 31%.

For another assay the target is unchanged. In words: (§1) Positive ago-allosteric modulation of GLP2R overexpressed in human SE302 cells assessed as placental alkaline phosphatase activation measured on day 3 by Alamar Blue assay. It counts as cell-based.
On to `COc1cccc(SC/C(=N\O)c2cc(Cl)sc2Cl)c1`, for which the result was inactive.

In the case of `O/N=C(\CSc1ccccc1)c1cccc(O)c1`, the outcome was inactive. `Cn1nc(C2CC2)cc1/C(CSc1ccccc1)=N/O`: the result was inactive. The same measure, in the same setting: the same measure for `O/N=C(\CSC1CCCCC1)c1cc(Cl)sc1Cl`: “inactive”; for `O=C(O)c1ccccc1SC/C(=N\O)c1cc(Cl)sc1Cl`: “inactive”; for `Cn1nc(C(C)(C)C)cc1/C(CSc1ccccc1)=N/O`: “inactive”.

In the case of `O/N=C(\CSCCCc1ccccc1)c1cc(Cl)sc1Cl`, the outcome was inactive. On the same count and under the same terms, the same measure for `COc1c(C(=O)O)cc(/C(CSc2ccccc2)=N/O)cc1C(C)(C)C`: “inactive”. As for `Cn1nc(C(F)(F)F)cc1/C(CSc1ccccc1)=N/O`, the result was inactive.

`CC(C)(C)SC/C(=N\O)c1cc(Cl)sc1Cl`: the result was inactive. Consider `O/N=C(\CSc1ccccn1)c1cc(Cl)sc1Cl`, for which the result was inactive. Still for that read-out and setting: for `CCSC/C(=N\O)c1cc(Cl)sc1Cl` the value was “inactive”; for `Cc1cc(/C(CSc2ccccc2)=N/O)n(C)n1`, “inactive”.

Regarding `COc1ccccc1SC/C(=N\O)c1cc(Cl)sc1Cl`, the result was inactive. With `O/N=C(\CSCc1ccccc1)c1cc(Cl)sc1Cl`, the outcome was inactive.

The target of another assay is T2, Glucagon-like peptide 2 receptor (Homo sapiens, UniProt O95838).
T2 sequence (O95838 whole entry): T1 sequence (whole entry)
The description is as §1. The format is cell-based.
“H-DGSFSDEMNTILDNLAARDFINWLIQTKITD-OH [listing 2 of 2 here]”: the EC50 was determined as 31 nM.

The target of another assay is T1, Glucagon-like peptide 2 receptor (Homo sapiens). In words: Positive ago-allosteric modulation of GLP2R overexpressed in human SE302 cells assessed as placental alkaline phosphatase activation at 25 uM measured on day 3 by Alamar Blue assay relative to 100 pM GLP2. The format is cell-based.
Turning to `CC(C)(C)c1cc(/C(CSc2ccccc2)=N/O)cc(C(C)(C)C)c1`, the %max was 31%. Same read-out and setting: the same measure for `O/N=C(\CSc1ccccc1)c1cc(C(F)(F)F)nn1C1CCCC1`: 127%; for `Cc1cccc(C)c1SC/C(=N\O)c1cc(Cl)sc1Cl`: 10%; for `O/N=C(\CSc1ccc(F)cc1)c1cc(Cl)sc1Cl`: 134%.

For `O/N=C(\CSc1cccc(Cl)c1)c1cc(Cl)sc1Cl`, the %max was found to be 53%. As for `Cc1ccccc1SC/C(=N\O)c1cc(Cl)sc1Cl`, the %max came to 90%. `O/N=C(\CSc1ccccc1)c1cc(C(F)(F)F)nn1C1CCC1`: the %max is 99%. Take `CCCn1nc(C(F)(F)F)cc1/C(CSc1ccccc1)=N/O`: the %max came out at 71%. On to `O/N=C(\CSc1cccc(F)c1)c1cc(Cl)sc1Cl`, for which the %max stood at 73%. Regarding `O/N=C(\CSc1cccs1)c1cc(Cl)sc1Cl`, the %max was determined as 40%. The same measure, in the same setting: for `Cn1nc(-c2ccccc2)cc1/C(CSc1ccccc1)=N/O` the value was 14%; for `O/N=C(\CSc1ccccc1F)c1cc(Cl)sc1Cl`, 80%. Still for that read-out and setting: the same measure for `O/N=C(\CSc1ccccc1Cl)c1cc(Cl)sc1Cl`: 60%. On to `O/N=C(\CSc1ccc(C(F)(F)F)cc1)c1cc(Cl)sc1Cl`, for which the %max is 16%.

Turning to `O/N=C(\CSc1ccncc1C(F)(F)F)c1cc(Cl)sc1Cl`, the %max was determined as 143%.

`CC(C)n1nc(C(F)(F)F)cc1/C(CSc1ccccc1)=N/O`: the %max stood at 87%. `CC(C)(C)OC(=O)c1cc(/C(CSc2ccccc2)=N/O)cc(C(C)(C)C)c1O`: the %max was found to be 4%.

`COC(=O)c1ccccc1SC/C(=N\O)c1cc(Cl)sc1Cl`: the %max worked out at 39%. As for `Cn1nc(C(F)(F)F)cc1/C(CSc1ccccc1)=N/O`, the %max was 13%. On the same count and under the same terms, the same measure for `COc1cccc(/C(CSc2ccccc2)=N/O)c1`: 8%. On the same count and under the same terms, for `O/N=C(\CSc1ccccc1)c1cc(C(F)(F)F)cc(C(F)(F)F)c1` the value was 29%; for `CC(C)Oc1cccc(/C(CSc2ccccc2)=N/O)c1`, 14%; for `COc1cccc(SC/C(=N\O)c2cc(Cl)sc2Cl)c1C`, 31%. Regarding `Cc1cc(F)ccc1SC/C(=N\O)c1cc(Cl)sc1Cl`, the %max stood at 124%. With `CCCOc1cccc(/C(CSc2ccccc2)=N/O)c1`, the %max is 9%. On the same count and under the same terms, the same measure for `CCc1ccccc1SC/C(=N\O)c1cc(Cl)sc1Cl`: 63%. The same measure, in the same setting: the same measure for `CCc1cnccc1SC/C(=N\O)c1cc(Cl)sc1Cl`: 59%; for `O/N=C(\CSc1cccc2ccccc12)c1cc(Cl)sc1Cl`: 23%. On the same count and under the same terms, for `CC(C)(C)c1cccc(/C(CSc2ccccc2)=N/O)c1` the value was 18%; for `Cc1cccc(SC/C(=N\O)c2cc(Cl)sc2Cl)c1`, 30%; for `O/N=C(\CSc1ccc(Cl)cc1)c1cc(Cl)sc1Cl`, 17%.

For `Cc1cccc(SC/C(=N\O)c2cc(Cl)sc2Cl)c1C`, the %max was determined as 54%.

Another assay shares this target. In words: Positive ago-allosteric modulation of GLP2R overexpressed in human SE302 cells assessed as placental alkaline phosphatase activation at 50 uM measured on day 3 by Alamar Blue assay relative to 10 pM GLP2. It counts as cell-based.
Turning to `N#Cc1cccc(/C(CSc2ccccc2)=N/O)c1`, the %max was determined as 8%.

On to `COc1ccc(SC/C(=N\O)c2cc(Cl)sc2Cl)cc1`, for which the %max came to 217%.

In the case of `Cc1ccc(SC/C(=N\O)c2cc(Cl)sc2Cl)cc1`, the %max turned out to be 65%. Same read-out and setting: for `COc1ccccc1SC/C(=N\O)c1cc(Cl)sc1Cl` the value was 78%; for `O/N=C(\CSc1ccccc1)c1ccccc1`, 4%.

For another assay the target is unchanged. In words: Positive ago-allosteric modulation of GLP2R overexpressed in human SE302 cells assessed as placental alkaline phosphatase activation at 25 uM measured on day 3 by Alamar Blue assay relative to 10 pM GLP2. The format is cell-based.
As to `COc1cccc(SC/C(=N\O)c2cc(Cl)sc2Cl)c1`, the %max amounted to 144%.

Turning to `O/N=C(\CSc1ccc(F)cc1)c1cc(Cl)sc1Cl`, the %max is 945%. In the case of `O/N=C(\CSc1ccccc1)c1cccc(Br)c1`, the %max stood at 42%. Regarding `O/N=C(\CSc1ccccc1)c1cccc(Cl)c1`, the %max worked out at 46%. Consider `O/N=C(\CSc1ccccc1)c1cccc(F)c1`, for which the %max is 54%.

Consider `O/N=C(\CSc1ccccc1)c1cccc(C(F)(F)F)c1`, for which the %max was found to be 95%. As to `COC(=O)c1ccccc1SC/C(=N\O)c1cc(Cl)sc1Cl`, the %max turned out to be 284%. Still for that read-out and setting: the same measure for `O/N=C(\CSc1ccccc1)c1cc(C(F)(F)F)cc(C(F)(F)F)c1`: 517%; for `CC(C)(C)c1cccc(/C(CSc2ccccc2)=N/O)c1`: 244%; for `O/N=C(\CSc1ccc(Cl)cc1)c1cc(Cl)sc1Cl`: 293%.

For a further assay the target is unchanged. The assay is described as follows: Positive ago-allosteric modulation of GLP2R overexpressed in human SE302 cells assessed as placental alkaline phosphatase activation at 50 uM measured on day 3 by Alamar Blue assay relative to 100 pM GLP2. The format is cell-based.
On to `O/N=C(\CSc1cccnc1)c1cc(Cl)sc1Cl`, for which the %max turned out to be 27%. For `Cc1cnccc1SC/C(=N\O)c1cc(Cl)sc1Cl`, the %max is 44%. The same measure, in the same setting: the same measure for `Cc1ccc(SC/C(=N\O)c2cc(Cl)sc2Cl)cc1`: 3%.
